Experiments:
Format in all cases: cell-based
MCF7 = assay: RNA sequencing after E2 or DMSO treatment, MCF7
Procedure: (§1) To derive a transcriptional signature of ER pathway activity, RNA sequencing was performed on seven breast cancer cell lines following treatment with either DMSO or 1 μM estradiol (E2) for 24 hours. Briefly, RNA libraries for cell lines were made with TRUSEQ® RNA sample preparation kit (ILLUMINA®) according to the manufacturer's protocol. The libraries were sequenced on an ILLUMINA® Hi Seq 2000, using 1-4 lanes per cell line. RNA sequencing (RNA-seq) data were analyzed with HTSeqGenie (R package version 3.14.0) in BioConductor (Huber et al. Nature Methods. 112:115-21, 2015) as follows: reads were trimmed to 75 base pairs (bp), filtered for quality and rRNA/adapter contamination, and aligned to the reference genome GRCh38 using GSNAP (Wu et al. Bioinforma Oxf Engl. 26:873-81, 2010). Gene expression was quantified as Reads per Kilobase of exon model per Million mapped reads normalized by size factor (nRPKM), defined as number of reads aligning to a gene in a sample/(total number of uniquely mapped reads for that sample x gene length x size factor). Genes without gene symbol and genes of uncertain function (LOC and Corf symbols) were excluded.

CAMA1 = assay: RNA sequencing after E2 or DMSO treatment, CAMA1
Procedure: as §1

T47D = assay: RNA sequencing after E2 or DMSO treatment, T47D
Procedure: as §1

MDA-MB-330 = assay: RNA sequencing after E2 or DMSO treatment, MDA-MB-330
Procedure: as §1

[1] = gene NBEA, 1 μM E2 24 hours vs DMSO
[2] = gene PNPLA7, 1 μM E2 24 hours vs DMSO
[3] = gene PSCA, 1 μM E2 24 hours vs DMSO
[4] = gene SEMASE, 1 μM E2 24 hours vs DMSO
[5] = gene SSPO, 1 μM E2 24 hours vs DMSO
[6] = gene STON1, 1 μM E2 24 hours vs DMSO
[7] = gene TGFB3, 1 μM E2 24 hours vs DMSO
[8] = gene TP53INP1, 1 μM E2 24 hours vs DMSO
[9] = gene TP53INP2, 1 μM E2 24 hours vs DMSO
[10] = gene BAMBI, 1 μM E2 24 hours vs DMSO
[11] = gene BCAS1, 1 μM E2 24 hours vs DMSO
[12] = gene CCNG2, 1 μM E2 24 hours vs DMSO
[13] = gene DDEE4, 1 μM E2 24 hours vs DMSO
[14] = gene EGLN3, 1 μM E2 24 hours vs DMSO
[15] = gene FAM1718, 1 μM E2 24 hours vs DMSO
[16] = gene GRM4, 1 μM E2 24 hours vs DMSO
[17] = gene IL1R1, 1 μM E2 24 hours vs DMSO
[18] = gene LIPH, 1 μM E2 24 hours vs DMSO

In the case of `C[C@]12CC[C@@H]3c4ccc(O)cc4CC[C@H]3[C@@H]1CC[C@@H]2O` [Compound E2, estradiol], the “Log2 FC E2 vs no E2: NBEA” value (MCF7; [1]) is reported as −1.132, the “Log2 FC E2 vs no E2: PNPLA7” value (MCF7; [2]) is reported as −1.046 and the “Log2 FC E2 vs no E2: PSCA” value (MCF7; [3]) is reported as −2.199. For the same molecule, the “Log2 FC E2 vs no E2: SEMASE” value (MCF7; [4]) was −1.034, the “Log2 FC E2 vs no E2: SSPO” value (MCF7; [5]) was −1.338 and the “Log2 FC E2 vs no E2: STON1” value (MCF7; [6]) was −2.067. The “Log2 FC E2 vs no E2: TGFB3” value (MCF7; [7]) was −1.707, the “Log2 FC E2 vs no E2: TP53INP1” value (MCF7; [8]) was −1.816 and the “Log2 FC E2 vs no E2: TP53INP2” value (MCF7; [9]) was −1.207. For the same molecule, the “Log2 FC E2 vs no E2: BAMBI” value (CAMA1; [10]) was −1.072, the “Log2 FC E2 vs no E2: BCAS1” value (CAMA1; [11]) was −2.311 and the “Log2 FC E2 vs no E2: CCNG2” value (CAMA1; [12]) was −2.094. For the same molecule, the “Log2 FC E2 vs no E2: DDEE4” value (CAMA1; [13]) was −2.737, the “Log2 FC E2 vs no E2: EGLN3” value (CAMA1; [14]) was −1.533 and the “Log2 FC E2 vs no E2: FAM1718” value (CAMA1; [15]) was −2.271. For the same molecule, the “Log2 FC E2 vs no E2: GRM4” value (CAMA1; [16]) was −2.021, the “Log2 FC E2 vs no E2: IL1R1” value (CAMA1; [17]) was −1.686 and the “Log2 FC E2 vs no E2: LIPH” value (CAMA1; [18]) was −1.583. The “Log2 FC E2 vs no E2: NBEA” value (CAMA1; [1]) was −1.550, the “Log2 FC E2 vs no E2: PNPLA7” value (CAMA1; [2]) was −2.068 and the “Log2 FC E2 vs no E2: PSCA” value (CAMA1; [3]) was −3.517. For the same molecule, the “Log2 FC E2 vs no E2: SEMASE” value (CAMA1; [4]) was −1.374, the “Log2 FC E2 vs no E2: SSPO” value (CAMA1; [5]) was −2.298 and the “Log2 FC E2 vs no E2: STON1” value (CAMA1; [6]) was −2.609. The “Log2 FC E2 vs no E2: TGFB3” value (CAMA1; [7]) was −1.444, the “Log2 FC E2 vs no E2: TP53INP1” value (CAMA1; [8]) was −3.177 and the “Log2 FC E2 vs no E2: TP53INP2” value (CAMA1; [9]) was −2.068. The “Log2 FC E2 vs no E2: BAMBI” value (T47D; [10]) was −1.394, the “Log2 FC E2 vs no E2: BCAS1” value (T47D; [11]) was −2.536 and the “Log2 FC E2 vs no E2: CCNG2” value (T47D; [12]) was −1.310. The “Log2 FC E2 vs no E2: DDEE4” value (T47D; [13]) was −1.878, the “Log2 FC E2 vs no E2: EGLN3” value (T47D; [14]) was −2.052 and the “Log2 FC E2 vs no E2: FAM1718” value (T47D; [15]) was −1.158. For the same molecule, the “Log2 FC E2 vs no E2: GRM4” value (T47D; [16]) was −1.340, the “Log2 FC E2 vs no E2: IL1R1” value (T47D; [17]) was −2.433 and the “Log2 FC E2 vs no E2: LIPH” value (T47D; [18]) was −1.330. The “Log2 FC E2 vs no E2: NBEA” value (T47D; [1]) was −1.368, the “Log2 FC E2 vs no E2: PNPLA7” value (T47D; [2]) was −1.211 and the “Log2 FC E2 vs no E2: PSCA” value (T47D; [3]) was −1.253. For the same molecule, the “Log2 FC E2 vs no E2: SEMASE” value (T47D; [4]) was −0.741, the “Log2 FC E2 vs no E2: SSPO” value (T47D; [5]) was −1.181 and the “Log2 FC E2 vs no E2: STON1” value (T47D; [6]) was −2.304. For the same molecule, the “Log2 FC E2 vs no E2: TGFB3” value (T47D; [7]) was −1.263, the “Log2 FC E2 vs no E2: TP53INP1” value (T47D; [8]) was −1.363 and the “Log2 FC E2 vs no E2: TP53INP2” value (T47D; [9]) was −0.959. The “Log2 FC E2 vs no E2: BAMBI” value (MDA-MB-330; [10]) was −1.352, the “Log2 FC E2 vs no E2: BCAS1” value (MDA-MB-330; [11]) was −1.772 and the “Log2 FC E2 vs no E2: CCNG2” value (MDA-MB-330; [12]) was −1.009. The “Log2 FC E2 vs no E2: DDEE4” value (MDA-MB-330; [13]) was −1.321, the “Log2 FC E2 vs no E2: EGLN3” value (MDA-MB-330; [14]) was −2.785 and the “Log2 FC E2 vs no E2: FAM1718” value (MDA-MB-330; [15]) was −2.790. The “Log2 FC E2 vs no E2: GRM4” value (MDA-MB-330; [16]) was −2.281, the “Log2 FC E2 vs no E2: IL1R1” value (MDA-MB-330; [17]) was −0.941 and the “Log2 FC E2 vs no E2: LIPH” value (MDA-MB-330; [18]) was −1.737. For the same molecule, the “Log2 FC E2 vs no E2: NBEA” value (MDA-MB-330; [1]) was −1.044, the “Log2 FC E2 vs no E2: PNPLA7” value (MDA-MB-330; [2]) was −1.084 and the “Log2 FC E2 vs no E2: PSCA” value (MDA-MB-330; [3]) was −2.529. The “Log2 FC E2 vs no E2: SEMASE” value (MDA-MB-330; [4]) was −2.427, the “Log2 FC E2 vs no E2: SSPO” value (MDA-MB-330; [5]) was −1.383 and the “Log2 FC E2 vs no E2: STON1” value (MDA-MB-330; [6]) was −1.081. The “Log2 FC E2 vs no E2: TGFB3” value (MDA-MB-330; [7]) was −1.111, the “Log2 FC E2 vs no E2: TP53INP1” value (MDA-MB-330; [8]) was −1.304 and the “Log2 FC E2 vs no E2: TP53INP2” value (MDA-MB-330; [9]) was −1.210.
